Assay results taken from patent US10112941B2, “Tricyclic compounds as anticancer agents” (BRISTOL-MYERS SQUIBB COMPANY, priority 2013, dated 2018).
Where two headings read alike, the source gives them in different places.

Molecular target: BRD4 (Homo sapiens, UniProt O60885)
Test: Time Resolved Fluorescence Resonance Energy Transfer (TR-FRET) binding assay, BRD4
Settings: one of the FRET assays described

SMILES | IC50 (read-out: FRET BRD4 IC50) [nM] | IC50 (FRET BRD4 IC50 (nM)) [nM]
[2H]C([2H])([2H])c1nnn(C)c1-c1cnc2c3c(F)ccc(S(C)(=O)=O)c3n(C(c3ncccc3F)C3CCOCC3)c2c1 (stereo not shown) [Example 236, 3-Fluoro-2-({9-fluoro-6-methanesulfonyl-3-[4-(^2H3)methyl-1-methyl-1H-1,2,3-triazol-5-yl]-5H-pyrido[3,2-b]indol-5-yl}(oxan-4-yl)methyl)pyridine] | < 1500 | –
Cc1nnn(C)c1-c1cnc2c3ccc(CS(C)(=O)=O)cc3n([C@@H](c3ccc(Cl)cn3)C3CCOCC3)c2c1 [Example 334] | < 5 | –
Cc1nnn(C)c1-c1cnc2c3c(F)cc(C(C)(C)O)cc3n([C@H](c3ccccc3F)C3CCOCC3)c2c1 [Example 114, 2-[3-(Dimethyl-1H-1,2,3-triazol-5-yl)-9-fluoro-5-[(S)-(2-fluorophenyl)(oxan-4-yl)methyl]-5H-pyrido[3,2-b]indol-7-yl]propan-2-ol] | < 5 | –
Cc1noc(C)c1-c1cnc2c3ccc(C(C)(C)O)cc3n(C(CCC(F)(F)F)c3cnoc3)c2c1 (single isomer, unassigned) [Example 37, 2-[3-(Dimethyl-1,2-oxazol-4-yl)-5-[4,4,4-trifluoro-1-(1,2-oxazol-4-yl)butyl]-5H-pyrido[3,2-b]indol-7-yl]propan-2-ol] | < 5 | –
COc1cc(C(C)(C)O)cc2c1c1ncc(-c3c(C)nnn3C)cc1n2[C@H](c1ccccc1)C1CCOCC1 [Example 260, 2-[3-(Dimethyl-1H-1,2,3-triazol-5-yl)-9-methoxy-5-[(S)-oxan-4-yl(phenyl)methyl]-5H-pyrido[3,2-b]indol-7-yl]propan-2-ol] | < 5 | –
Cc1nnn(C)c1-c1cnc2c3c(F)cc(C(C)(C)O)cc3n(C(c3ccc(F)cc3F)C3CCOCC3)c2c1 (single isomer, unassigned) [Example 110, 2-{5-[(2,4-Difluorophenyl)(oxan-4-yl)methyl]-3-(dimethyl-1H-1,2,3-triazol-5-yl)-9-fluoro-5H-pyrido[3,2-b]indol-7-yl}propan-2-ol] | < 5 | –
[2H]C([2H])([2H])c1nnn(C)c1-c1cnc2c3ccc(C(C)(C)O)c(F)c3n(C(c3ncccc3F)C3CCC(F)(F)CC3)c2c1 (single isomer, unassigned) [Example 456] | < 5 | –
Cc1nnn(C)c1-c1cnc2c3ccc(C(C)(C)O)cc3n(C(c3ncccn3)C3CCOCC3)c2c1 (single isomer, unassigned) [Example 292] | < 5 | –
Cc1nnn(C)c1-c1cnc2c3ccc(C(C)(C)O)cc3n(C(c3cccc(F)c3F)C3CCOCC3)c2c1 (single isomer, unassigned) [Example 95, 2-{5-[(2,3-Difluorophenyl)(oxan-4-yl)methyl]-3-(dimethyl-1H-1,2,3-triazol-5-yl)-5H-pyrido[3,2-b]indol-7-yl}propan-2-ol] | < 5 | –
Cc1nnn(C)c1-c1cnc2c3c(F)cc(C(C)(C)O)cc3n(C(c3c(F)cc(F)cc3F)C3CCOCC3)c2c1 (single isomer, unassigned) [Example 104, 2-[3-(Dimethyl-1H-1,2,3-triazol-5-yl)-9-fluoro-5-[oxan-4-yl(2,4,6-trifluorophenyl)methyl]-5H-pyrido[3,2-b]indol-7-yl]propan-2-ol] | < 5 | –
Cn1nccc1-c1cnc2c3ccc(S(C)(=O)=O)cc3n([C@H](c3ccccc3)C3CCOCC3)c2c1 [Example 418, 5-{7-Methanesulfonyl-5-[(S)-oxan-4-yl(phenyl)methyl]-5H-pyrido[3,2-b]indol-3-yl}-1-methyl-1H-pyrazole] | < 25 | –
Cc1nnn(C)c1-c1cnc2c3cccc(S(C)(=O)=O)c3n([C@H](c3ccccc3)C3CCOCC3)c2c1 [Example 376, 5-{6-Methanesulfonyl-5-[(S)-oxan-4-yl(phenyl)methyl]-5H-pyrido[3,2-b]indol-3-yl}-1,4-dimethyl-1H-1,2,3-triazole] | < 5 | –
Cc1noc(C)c1-c1cnc2c3ccc(S(C)(=O)=O)cc3n(Cc3ccccc3)c2c1 [Example 52, 4-(5-Benzyl-7-(methylsulfonyl)-5H-pyrido[3,2-b]indol-3-yl)-3,5-dimethyl-1,2-oxazole] | < 25 | –
Cc1sc(=O)n(C)c1-c1cnc2c3ccc(C(C)(C)O)cc3n(C(c3ccccc3)C3CCOCC3)c2c1 (single isomer, unassigned) [Example 170, 4-[7-(2-Hydroxypropan-2-yl)-5-[oxan-4-yl(phenyl)methyl]-5H-pyrido[3,2-b]indol-3-yl]-3,5-dimethyl-2,3-dihydro-1,3-thiazol-2-one] | < 1500 | –
Cc1noc(C)c1-c1cnc2c3ccc(C(C)(C)O)cc3n([C@@H](c3ccccc3)C3CCC3)c2c1 [Example 14] | < 25 | –
[2H]C([2H])([2H])c1nnn(C)c1-c1cnc2c3c(OCC(C)(F)F)ccc(S(C)(=O)=O)c3n(C(c3ncccc3F)C3CCOCC3)c2c1 (stereo not shown) [Example 248, 2-{[9-(2,2-Difluoropropoxy)-6-methanesulfonyl-3-[4-(^2H3)methyl-1-methyl-1H-1,2,3-triazol-5-yl]-5H-pyrido[3,2-b]indol-5-yl](oxan-4-yl)methyl}-3-fluoropyridine] | < 1500 | –
Cn1nncc1-c1cnc2c3ccc(C(C)(C)O)cc3n(C(c3ccc(F)cc3)C3CCOCC3)c2c1 (single isomer, unassigned) [Example 67, 2-{5-[(4-Fluorophenyl)(oxan-4-yl)methyl]-3-(1-methyl-1H-1,2,3-triazol-5-yl)-5H-pyrido[3,2-b]indol-7-yl}propan-2-ol] | < 25 | –

SMILES | IC50 (read-out: FRET BRD4 IC50) [nM] | IC50 (FRET BRD4 IC50 (nM)) [nM]
Cc1nnn(C)c1-c1cnc2c3ccc(C(C)(C)O)cc3n(C(c3ncccc3F)C3CCOCC3)c2c1 (single isomer, unassigned) [Example 294] | < 5 | –
[2H]C([2H])([2H])c1nnn(C)c1-c1cnc2c3ccc(C(C)(C)O)cc3n(C(c3cc(Cl)ccn3)C3CCOCC3)c2c1 (single isomer, unassigned) [Example 457] | < 5 | –
Cc1nnn(C)c1-c1cnc2c3c(F)cc(C(C)(C)O)cc3n(C(c3cc(F)ccc3F)C3CCOCC3)c2c1 (single isomer, unassigned) [Example 106, 2-{5-[(2,5-Difluorophenyl)(oxan-4-yl)methyl]-3-(dimethyl-1H-1,2,3-triazol-5-yl)-9-fluoro-5H-pyrido[3,2-b]indol-7-yl}propan-2-ol] | < 5 | –
[2H]C([2H])([2H])c1nnn(C)c1-c1cnc2c3ccc(C(C)(C)O)cc3n(C(c3ncccc3Cl)C3CCOCC3)c2c1 (single isomer, unassigned) [Example 322] | < 5 | –
Cc1nnn(C)c1-c1cnc2c3ccc(C(C)(C)O)cc3n(C(c3cc(F)cc(F)c3)C3CCOCC3)c2c1 (single isomer, unassigned) [Example 99, 2-{5-[(3,5-Difluorophenyl)(oxan-4-yl)methyl]-3-(dimethyl-1H-1,2,3-triazol-5-yl)-5H-pyrido[3,2-b]indol-7-yl}propan-2-ol] | < 5 | –
COc1ccc(S(C)(=O)=O)c2c1c1ncc(-c3c(C)nnn3C)cc1n2[C@H](c1ccc(F)cc1)C1CCOCC1 [Example 190, 5-{5-[(S)-(4-Fluorophenyl)(oxan-4-yl)methyl]-6-methanesulfonyl-9-methoxy-5H-pyrido[3,2-b]indol-3-yl}-1,4-dimethyl-1H-1,2,3-triazole] | < 5 | –
Cn1nnc(Cl)c1-c1cnc2c3cc(Cl)c(C(C)(C)O)cc3n([C@H](c3ccccc3)C3CCOCC3)c2c1 [Example 386, 2-[8-Chloro-3-(4-chloro-1-methyl-1H-1,2,3-triazol-5-yl)-5-[(S)-oxan-4-yl(phenyl)methyl]-5H-pyrido[3,2-b]indol-7-yl]propan-2-ol] | < 5 | –
Cc1noc(C)c1-c1cnc2c3ccc(C(C)(C)O)cc3n([C@H](c3ccc(F)cc3)C3CCOC(C)(C)C3)c2c1 (stereo partly shown) [Example 17] | < 25 | –
[2H]c1c(C([2H])(C2CCOCC2)n2c3cc(C(C)(C)O)ccc3c3ncc(-c4c(C)noc4C([2H])([2H])[2H])cc32)noc1C([2H])([2H])[2H] (stereo not shown) [Example 328] | < 25 | –
Cn1nnc(Br)c1-c1cnc2c3ccc(C(C)(C)O)cc3n([C@H](c3ccccc3)C3CCOCC3)c2c1 [Example 384, 2-[3-(4-Bromo-1-methyl-1H-1,2,3-triazol-5-yl)-5-[(S)-oxan-4-yl(phenyl)methyl]-5H-pyrido[3,2-b]indol-7-yl]propan-2-ol] | – | < 5
[2H]C([2H])([2H])c1nnn(C)c1-c1cnc2c3ccc(C(C)(C)O)cc3n(C(c3ccc(F)cn3)C3CCOCC3)c2c1 (single isomer, unassigned) [Example 317] | < 5 | –
Cc1nnn(C)c1-c1cnc2c3ccc(CS(C)(=O)=O)cc3n([C@H](c3ncccc3Cl)C3CCOCC3)c2c1 [Example 339] | < 5 | –
[2H]C([2H])([2H])c1nnn(C)c1-c1cnc2c3cc(F)c(C(C)(O)C4CC4)cc3n([C@H](c3ccccc3)C3CCOCC3)c2c1 (stereo partly drawn) [Example 446, 1-Cyclopropyl-1-{8-fluoro-3-[4-(^2H3)methyl-1-methyl-1H-1,2,3-triazol-5-yl]-5-[(S)-oxan-4-yl(phenyl)methyl]-5H-pyrido[3,2-b]indol-7-yl}ethan-1-ol] | < 5 | –
[2H]c1c(C([2H])(C2CCOCC2)n2c3cc(C(C)(C)O)ccc3c3ncc(-c4c(C)noc4C([2H])([2H])[2H])cc32)noc1C([2H])([2H])[2H] (stereo not shown) [Example 327] | < 5 | –
COc1c(C(C)(C)O)ccc2c3ncc(-c4c(C)nnn4C)cc3n([C@H](c3ccccc3)C3CCOCC3)c12 [Example 355, 2-[3-(Dimethyl-1H-1,2,3-triazol-5-yl)-6-methoxy-5-[(S)-oxan-4-yl(phenyl)methyl]-5H-pyrido[3,2-b]indol-7-yl]propan-2-ol] | < 5 | –
CCOC(=O)Nc1ccc2c3ncc(-c4c(C)nnn4C)cc3n([C@H](c3ccccc3)C3CCOCC3)c2c1 [Example 366, Ethyl N-[3-(dimethyl-1H-1,2,3-triazol-5-yl)-5-[(S)-oxan-4-yl(phenyl)methyl]-5H-pyrido[3,2-b]indol-7-yl]carbamate] | < 5 | –
[2H]C([2H])([2H])c1nnn(C)c1-c1cnc2c3ccc(C(C)(C)O)c(F)c3n(C(c3ccc(F)cc3F)C3CCOCC3)c2c1 (stereo not shown) [Example 282, 2-{5-[(2,4-Difluorophenyl)(oxan-4-yl)methyl]-6-fluoro-3-[4-(^2H3)methyl-1-methyl-1H-1,2,3-triazol-5-yl]-5H-pyrido[3,2-b]indol-7-yl}propan-2-ol] | < 5 | –
